Data published in patent publication US20230055705A1, “SUBSTITUTED THIOPHENE CARBOXAMIDES AND DERIVATIVES THEREOF” (Bayer Aktiengesellschaft, priority 2019, published 2023).
Read-outs that look alike come from different tables or passages of the source.

Key:
Peronospora parasitica = test: In vivo preventive test on Peronospora parasitica (Crucifer downy mildew); conditions: Hyaloperonospora parasitica, in Brassica oleracea, 120 h, cabbage, evaluated 5 days after inoculation, read-out: efficacy; for pest or weed control at 31 ppm: 31 ppm of active ingredient; for pest or weed control at 125 ppm: 125 ppm of active ingredient; for pest or weed control at 500 ppm: 500 ppm of active ingredient
Protocol: (§1) The tested active ingredients were prepared by homogenization in a mixture of acetone/Dimethyl sulfoxide/Tween®, and then diluted with water to obtain the desired active material concentration. The young plants of cabbage were treated by spraying the active ingredient prepared as described above. Control plants were treated only with an aqueous solution of acetone/Dimethyl sulfoxide/Tween®.
After 72 hours, the plants were contaminated by spraying the leaves with an aqueous suspension of Peronospora parasitica spores. The contaminated cabbage plants were incubated for 5 days at 20° C. and at 100% relative humidity.
The test was evaluated 5 days after the inoculation. 0% means an efficacy which corresponds to that of the control plants while an efficacy of 100% means that no disease was observed.
Compounds CMP2 and CMP3 were tested in an in vivo preventive test on Peronospora parasitica (Crucifer downy mildew) in the same conditions as described in Example G.

[1] = test system: Pseudomonas syringae pv. tomato; test: In vivo preventive test on Pseudomonas syringae pv. tomato (bacterial speck on tomato); conditions: evaluated 5 or 6 days after inoculation, read-out: efficacy; for pest or weed control at 500 ppm: 500 ppm of active ingredient; for pest or weed control at 31 ppm: 31 ppm of active ingredient
Protocol: as §1, with “tomato” for “cabbage”
After 72 hours, the plants were contaminated by spraying the leaves with an aqueous bacteria suspension of Pseudomonas syringae pv. tomato. The contaminated tomato plants were incubated for 4 days in saturated atmosphere at 22° C. day/20° C. night—70% HR and then for 1 or 2 days at 22° C. day/20° C. night at 70-80% relative humidity.
The test was evaluated 5 or 6 days after the inoculation. 0% means an efficacy which corresponds to that of the control plants while an efficacy of 100% means that no disease was observed.
Compounds CMP1 and CMP4 were tested in an in vivo preventive test on Pseudomonas syringae pv. tomato (bacterial speck on tomato) in the same conditions as described in Example J.

[2] = test system: Colletotrichum lindemuthianum; test: In vivo preventive test on Colletotrichum lindemuthianum (Antrachnose on bean); conditions: 144 h, inoculation 72 h after spraying, evaluated 6 days after inoculation, read-out: efficacy; for pest or weed control at 500 ppm: 500 ppm of active ingredient; for pest or weed control at 31 ppm: 31 ppm of active ingredient
Protocol: as §1, with “bean” for “cabbage”
(§2) After 72 hours, the plants were contaminated by spraying the leaves with an aqueous suspension of Colletotrichum lindemuthianum spores. The contaminated bean plants were incubated for 24 hours at 20° C. and at 100% relative humidity and then for 5 days at 20° C. and at 90% relative humidity. The test was evaluated 6 days after the inoculation. 0% means an efficacy which corresponds to that of the control plants while an efficacy of 100% means that no disease was observed.
Compound CMP1 was tested in an in vivo preventive test on Colletotrichum lindemuthianum (Antrachnose on bean) in the same conditions as described in Example F.

[3] = test system: salicylate responsive promoter sequence of the PR1 (pathogenesis-related protein I) gene (AT2G14610); test: Induction of defense gene expression in Arabidopsis thaliana (PR1 promoter-GFP reporter plants); assay type: in vivo; conditions: Arabidopsis thaliana, 72 h, 3rd day after spraying, mock treated leaves set as 1.00, read-out: relative fluorescence value; for fold induction at 75 ppm: 75 ppm of compound
Protocol: Arabidopsis thaliana reporter plants containing the coding sequence of a green fluorescent protein (GFP) linked to the salicylate responsive promoter sequence of the PR1 (pathogenesis-related protein I) gene (AT2G14610) were grown for five days and then sprayed with compounds. On the 3rd day after spraying, plant fluorescence was assessed with a MacroFluo instrument from Leica Microsystems (Wetzlar, Germany). Fluorescences were quantified with the Meta-Morph Microscopy Automation & Image Analysis Software (Molecular Devices, Sunnyvale, Calif., United States). Background fluorescence in mock treated leaves was set as 1.00.

[4] = LogP by HPLC on reversed phase columns (EEC directive 79/831 Annex V.A8); assay type: physicochemical; conditions: reversed phase HPLC columns, method [a]: LC-UV
Protocol: In the above tables, measurement of LogP values was performed according to EEC directive 79/831 Annex V.A8 by HPLC (High Performance Liquid Chromatography) on reversed phase columns with the following methods: • ^[a]
Calibration was done with straight-chain alkan2-ones (with 3 to 16 carbon atoms) with known LogP values (measurement of LogP values using retention times with linear interpolation between successive alkanones). Lambda-max-values were determined using UV-spectra from 200 nm to 400 nm and the peak values of the chromatographic signals.

[5] = test system: Xanthomonas campestris pv. campestris; test: In vivo preventive test on Xanthomonas campestris pv. campestris (black rot on cabbage); conditions: for pest or weed control at 125 ppm: 125 ppm of active ingredient
Protocol: The tested active ingredients were prepared by homogenization in a mixture of acetone/Dimethyl sulfoxide/Tween®, and then diluted with water to obtain the desired active material concentration.
The young plants of cabbage were treated by spraying the active ingredient prepared as described above. Control plants were treated only with an aqueous solution of acetone/Dimethyl sulfoxide/Tween®.
After 72 hours, the plants were contaminated by spraying the leaves with an aqueous bacteria suspension of Xanthomonas campestris pv. campestris. The contaminated cabbage plants were incubated for 8 or 10 days at 27° C. at 95% relative humidity.
The test was evaluated 8 or 10 days after the inoculation. 0% means an efficacy which corresponds to that of the control plants while an efficacy of 100% means that no disease was observed. […]
Compounds CMP1, CMP2, CMP3 and CMP4 were tested in an in vivo preventive test on Xanthomonas campestris pv. campestris (black rot on cabbage) in the same conditions as described in Example H.

Uromyces appendiculatus = test: In vivo preventive test on Uromyces appendiculatus (bean rust); conditions: 240 h, evaluated 10 days after inoculation, read-out: efficacy; for pest or weed control at 125 ppm: 125 ppm of active ingredient; for pest or weed control at 500 ppm: 500 ppm of active ingredient
Protocol: as §1, with “bean” for “cabbage”
as §2, with “Uromyces appendiculatus” for “Colletotrichum lindemuthianum”, “9” for “5”, “70-80%” for “90%”, “10” for “6”
Compounds CMP5 and CMP6 were tested in an in vivo preventive test on Uromyces appendiculatus (bean rust) in the same conditions as described in Example I.

[6] = test system: Pseudomonas syringae pv. tomato; test: Pseudomonas syringae pv. tomato in vitro cell test; assay type: cell-based; conditions: 20 ppm of active ingredient, 24 h incubation, read-out: efficacy (inhibition of bacteria growth)
Protocol: Culture medium: LB broth medium (Luria Broth Miller) Sigma
Inoculum: bacteria suspension
Compounds were solubilized in DMSO and the solution used to prepare the required range of concentrations. The final concentration of DMSO used in the assay was 1%.
(§3) Inoculum was prepared from a pre-culture of bacteria grown in liquid medium and diluted to the desired optical density (OD).
(§4) Compounds were evaluated for their ability to inhibit bacteria growth in liquid culture assay. The compounds were added in the desired concentrations to culture medium containing the bacteria suspension. After 24 h of incubation, the efficacy of compounds was determined by spectrometric measurement of bacteria growth. Inhibition was determined by comparing the absorbance values in wells containing the compounds with the absorbance in control wells without active ingredients.

[7] = test system: Xanthomonas campestris pv. campestris; test: Xanthomonas campestris pv. campestris in vitro cell test; assay type: cell-based; conditions: read-out: efficacy (inhibition of bacteria growth)
Protocol: • Solvent: DMSO • Culture medium: LB broth medium (Luria Broth Miller) Sigma • Inoculum: bacteria suspension
Compounds were solubilized in DMSO and the solution used to prepare the required range of concentrations. The final concentration of DMSO used in the assay was ≤1%.
as §3, §4

[8] = in an acidic range, with 0.1% formic acid in water and acetonitrile as eluent (linear gradient from 10% to 95% acetonitrile)
[9] = evaluated 8 or 10 days after inoculation, read-out: efficacy
[10] = 31 ppm of active ingredient, evaluated 8 or 10 days after inoculation, read-out: efficacy
[11] = 20 ppm of active ingredient, 24 h incubation
[12] = acidic range, 0.1% formic acid in water and acetonitrile as eluent (linear gradient 10% to 95% acetonitrile)

| SMILES | pest or weed control at 31 ppm (Peronospora parasitica) [%] | pest or weed control at 125 ppm (Peronospora parasitica) [%] | pest or weed control at 500 ppm (Peronospora parasitica) [%] | pest or weed control at 500 ppm [1] [%] | pest or weed control at 500 ppm [2] [%] | fold induction at 75 ppm [3] | fold induction at 300 ppm [3] | chromatographic logP [4, 8] | pest or weed control at 125 ppm [5, 9] [%] | pest or weed control at 125 ppm (Uromyces appendiculatus) [%] | pest or weed control at 500 ppm (Uromyces appendiculatus) [%] | pest or weed control at 31 ppm [1] [%] | pest or weed control at 31 ppm [5, 10] [%] | inhibition at 20 ppm [6] [%] | inhibition at 20 ppm [7, 11] [%] | pest or weed control at 31 ppm [2] [%] | chromatographic logP [4, 12] | pest or weed control at 31 ppm ([5]; read-out: efficacy, 31 ppm of active ingredient, evaluated 8 or 10 days after inoculation) [%] | inhibition at 20 ppm ([7]; 24 h) [%] |
| --- | --- | --- | --- | --- | --- | --- | --- | --- | --- | --- | --- | --- | --- | --- | --- | --- | --- | --- | --- |
| COC(=O)C(C)N(OC)C(=O)c1sc(Cl)c(Cl)c1Cl (centres unmarked) [I.109] | 90 to 100 | 90 to 100 | 90 to 100 | 80 to 89 | 90 to 100 | > 2 | > 2 | 3.72 | 70 to 79 | 90 to 100 | 90 to 100 |  |  |  |  |  |  |  |  |
| CCNC(=O)[C@@H](NC(=O)c1sc(Cl)c(Cl)c1Cl)C(C)C [I.090] | 90 to 100 | 90 to 100 | 90 to 100 | 90 to 100 | 90 to 100 | > 2 | > 2 |  |  | 80 to 89 | 90 to 100 | 90 to 100 | 70 to 79 |  |  |  |  |  |  |
| CCOC(=O)C(Cc1c[nH]c2ccccc12)NC(=O)c1sc(Cl)c(Cl)c1Cl (centres unmarked) [I.013] | 80 to 89 |  | 90 to 100 |  | 80 to 89 |  | > 2 | 4.44 | 80 to 89 | 70 to 79 | 90 to 100 |  |  | ≤ 30 | ≤ 30 |  |  |  |  |
| COC(=O)C(NC(=O)c1sc(Cl)c(Cl)c1Cl)c1cccs1 (centres unmarked) [I.124] | 90 to 100 | 90 to 100 |  |  |  | > 2 | > 2 |  |  | 90 to 100 |  | 80 to 89 |  | ≤ 30 | ≤ 30 | 90 to 100 | 4.22 |  |  |
| CON(C(=O)c1sc(Cl)c(Cl)c1Cl)C(C)C(=O)O (centres unmarked) [I.111] |  | 80 to 89 | 90 to 100 | 80 to 89 | 70 to 79 |  | > 2 | 2.83 | 70 to 79 | 90 to 100 | 90 to 100 |  |  |  |  |  |  |  |  |
| CNC(=S)SC[C@H](NC(=O)c1sc(Cl)c(Cl)c1Cl)C(=O)OC [I.140] | 90 to 100 | 90 to 100 |  |  |  | > 2 | > 2 |  |  | 90 to 100 |  | 70 to 79 |  | ≤ 30 |  |  | 3.52 | 90 to 100 | ≤ 30 |
| COC(=O)[C@H](C)NC(=S)c1sc(Cl)c(Cl)c1Cl [I.117] | 90 to 100 | 90 to 100 | 90 to 100 | 80 to 89 | 90 to 100 | > 2 | > 2 | 4.62 |  | 90 to 100 | 90 to 100 | 80 to 89 |  |  |  | 70 to 79 |  |  |  |
| C[C@H](NC(=O)c1sc(Cl)c(Cl)c1Cl)C(=O)O [CMP1, reference compound] |  |  |  | < 20 |  |  |  |  |  |  |  |  | < 40 |  |  | < 20 |  |  |  |
| CCOC(=O)C(C)N(OC)C(=O)c1sc(Cl)c(Cl)c1Cl (centres unmarked) [I.108] | 90 to 100 | 90 to 100 | 90 to 100 | 80 to 89 | 90 to 100 | > 2 | > 2 | 4.15 |  | 90 to 100 | 90 to 100 |  | 90 to 100 |  |  |  |  |  |  |
| CCSC(=O)[C@H](C)NC(=O)c1sc(Cl)c(Cl)c1Cl [I.089] | 90 to 100 | 90 to 100 | 90 to 100 | 90 to 100 | 90 to 100 | > 2 | > 2 | 4.4 |  | 90 to 100 | 90 to 100 | 90 to 100 |  |  |  |  |  |  |  |
